# Results taken from PubChem BioAssay (NCI).
#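 48-hour exposure; five concentrations; linearly interpolated endpoints. At the GI50, growth is halved. TGI is the concentration that stops growth completely.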
# Assays:
# Test in all cases: inhibition of tumour cell growth, NCI panel, 48 h
# SK-MEL-2 melanoma = tested on: SK-MEL-2 melanoma
# HOP-62 NSCLC = tested on: HOP-62 NSCLC
# HL-60(TB) leukemia = tested on: HL-60(TB) leukemia
# HCT-15 colon = tested on: HCT-15 colon
# BT-549 breast = tested on: BT-549 breast
# TK-10 renal = tested on: TK-10 renal
# OVCAR-4 ovarian = tested on: OVCAR-4 ovarian
# T-47D breast = tested on: T-47D breast
# K-562 leukemia = tested on: K-562 leukemia
# HS 578T breast = tested on: HS 578T breast
# A498 renal = tested on: A498 renal
# U251 CNS = tested on: U251 CNS
# MDA-MB-231 breast = tested on: MDA-MB-231 breast
# CCRF-CEM leukemia = tested on: CCRF-CEM leukemia
# SN12C renal = tested on: SN12C renal
# NCI/ADR-RES ovarian = tested on: NCI/ADR-RES ovarian
# MOLT-4 leukemia = tested on: MOLT-4 leukemia
# SF-539 CNS = tested on: SF-539 CNS
# MDA-MB-468 breast = tested on: MDA-MB-468 breast
# NCI-H522 lung = tested on: NCI-H522 lung
# NCI-H23 lung = tested on: NCI-H23 lung
# SK-MEL-5 melanoma = tested on: SK-MEL-5 melanoma
# SF-268 CNS = tested on: SF-268 CNS
# HT29 colon = tested on: HT29 colon
# OVCAR-3 ovarian = tested on: OVCAR-3 ovarian
# UO-31 renal = tested on: UO-31 renal
# UACC-62 melanoma = tested on: UACC-62 melanoma
# CAKI-1 renal = tested on: CAKI-1 renal
# OVCAR-8 ovarian = tested on: OVCAR-8 ovarian
# SR leukemia = tested on: SR leukemia
# IGROV1 ovarian = tested on: IGROV1 ovarian
# M14 melanoma = tested on: M14 melanoma
# COLO 205 colon = tested on: COLO 205 colon
# SW-620 colon = tested on: SW-620 colon
# KM12 colon = tested on: KM12 colon
# RPMI-8226 leukemia = tested on: RPMI-8226 leukemia
# MALME-3M melanoma = tested on: MALME-3M melanoma
# MDA-MB-435 = tested on: MDA-MB-435
# SK-OV-3 ovarian = tested on: SK-OV-3 ovarian
# NCI-H226 lung = tested on: NCI-H226 lung
# SNB-75 CNS = tested on: SNB-75 CNS
# SK-MEL-28 melanoma = tested on: SK-MEL-28 melanoma
# HCC-2998 colon = tested on: HCC-2998 colon
# HCT-116 colon = tested on: HCT-116 colon
# SNB-19 CNS = tested on: SNB-19 CNS
# HOP-92 NSCLC = tested on: HOP-92 NSCLC
# EKVX NSCLC = tested on: EKVX NSCLC
# DU-145 prostate = tested on: DU-145 prostate
# SF-295 CNS = tested on: SF-295 CNS
# RXF 393 renal = tested on: RXF 393 renal
# 786-0 renal = tested on: 786-0 renal
# PC-3 prostate = tested on: PC-3 prostate
# LOX IMVI melanoma = tested on: LOX IMVI melanoma
# MCF7 breast = tested on: MCF7 breast
# UACC-257 melanoma = tested on: UACC-257 melanoma
# NCI-H460 lung = tested on: NCI-H460 lung
# ACHN renal = tested on: ACHN renal
# A549 NSCLC = tested on: A549 NSCLC
# OVCAR-5 ovarian = tested on: OVCAR-5 ovarian
compound,measurement,setting,value
O=C(Nc1ccc(OCc2ccc(Cl)cc2)cc1)Nc1ccc(Cl)c(C(F)(F)F)c1,GI50,SK-MEL-2 melanoma,2000 nM
same,TGI,SK-MEL-2 melanoma,4.6 µM
same,GI50,HOP-62 NSCLC,2640 nM
same,TGI,HOP-62 NSCLC,8.18 µM
same,GI50,HL-60(TB) leukemia,2330 nM
same,TGI,HL-60(TB) leukemia,7.07 µM
same,GI50,HCT-15 colon,1870 nM
same,TGI,HCT-15 colon,10.6 µM
same,GI50,BT-549 breast,2370 nM
same,TGI,BT-549 breast,5.63 µM
same,GI50,TK-10 renal,2740 nM
same,TGI,TK-10 renal,9.69 µM
same,GI50,OVCAR-4 ovarian,2370 nM
same,TGI,OVCAR-4 ovarian,9.36 µM
same,GI50,T-47D breast,2060 nM
same,TGI,T-47D breast,10.1 µM
same,GI50,K-562 leukemia,1720 nM
same,TGI,K-562 leukemia,65.7 µM
same,GI50,HS 578T breast,2270 nM
same,TGI,HS 578T breast,6.7 µM
same,GI50,A498 renal,1960 nM
same,TGI,A498 renal,5.21 µM
same,GI50,U251 CNS,1920 nM
same,TGI,U251 CNS,4.55 µM
same,GI50,MDA-MB-231 breast,2450 nM
same,TGI,MDA-MB-231 breast,6.88 µM
same,GI50,CCRF-CEM leukemia,3.05 µM
same,TGI,CCRF-CEM leukemia,79.6 µM
same,GI50,SN12C renal,2030 nM
same,TGI,SN12C renal,6.46 µM
same,GI50,NCI/ADR-RES ovarian,1740 nM
same,TGI,NCI/ADR-RES ovarian,5.41 µM
same,GI50,MOLT-4 leukemia,3.02 µM
same,TGI,MOLT-4 leukemia,27.2 µM
same,GI50,SF-539 CNS,2400 nM
same,TGI,SF-539 CNS,5.98 µM
same,GI50,MDA-MB-468 breast,1540 nM
same,TGI,MDA-MB-468 breast,4.41 µM
same,GI50,NCI-H522 lung,1820 nM
same,TGI,NCI-H522 lung,5.28 µM
same,GI50,NCI-H23 lung,1390 nM
same,TGI,NCI-H23 lung,3.83 µM
same,GI50,SK-MEL-5 melanoma,1750 nM
same,TGI,SK-MEL-5 melanoma,3.35 µM
same,GI50,SF-268 CNS,3.18 µM
same,TGI,SF-268 CNS,13.2 µM
same,GI50,HT29 colon,2780 nM
same,TGI,HT29 colon,10.2 µM
same,GI50,OVCAR-3 ovarian,1980 nM
same,TGI,OVCAR-3 ovarian,8.35 µM
same,GI50,UO-31 renal,1820 nM
same,TGI,UO-31 renal,6.73 µM
same,GI50,UACC-62 melanoma,2400 nM
same,TGI,UACC-62 melanoma,10.6 µM
same,GI50,CAKI-1 renal,2310 nM
same,TGI,CAKI-1 renal,6.83 µM
same,GI50,OVCAR-8 ovarian,2320 nM
same,TGI,OVCAR-8 ovarian,7.19 µM
same,GI50,SR leukemia,2950 nM
same,TGI,SR leukemia,15.7 µM
same,GI50,IGROV1 ovarian,3.25 µM
same,TGI,IGROV1 ovarian,13.5 µM
same,GI50,M14 melanoma,2800 nM
same,TGI,M14 melanoma,12.1 µM
same,GI50,COLO 205 colon,1970 nM
same,TGI,COLO 205 colon,4.23 µM
same,GI50,SW-620 colon,2560 nM
same,TGI,SW-620 colon,10.3 µM
same,GI50,KM12 colon,2620 nM
same,TGI,KM12 colon,9.32 µM
same,GI50,RPMI-8226 leukemia,1550 nM
same,TGI,RPMI-8226 leukemia,13.5 µM
same,GI50,MALME-3M melanoma,1750 nM
same,TGI,MALME-3M melanoma,4.51 µM
same,GI50,MDA-MB-435,2590 nM
same,TGI,MDA-MB-435,8.51 µM
same,GI50,SK-OV-3 ovarian,3.42 µM
same,TGI,SK-OV-3 ovarian,11.6 µM
same,GI50,NCI-H226 lung,2000 nM
same,TGI,NCI-H226 lung,5.27 µM
same,GI50,SNB-75 CNS,1420 nM
same,TGI,SNB-75 CNS,5.45 µM
same,GI50,SK-MEL-28 melanoma,2840 nM
same,TGI,SK-MEL-28 melanoma,10.4 µM
same,GI50,HCC-2998 colon,2890 nM
same,TGI,HCC-2998 colon,11.7 µM
same,GI50,HCT-116 colon,1870 nM
same,TGI,HCT-116 colon,7.71 µM
same,GI50,SNB-19 CNS,2450 nM
same,TGI,SNB-19 CNS,7.99 µM
same,GI50,HOP-92 NSCLC,1960 nM
same,TGI,HOP-92 NSCLC,5.37 µM
same,GI50,EKVX NSCLC,2180 nM
same,TGI,EKVX NSCLC,5.95 µM
same,GI50,DU-145 prostate,2830 nM
same,TGI,DU-145 prostate,10.7 µM
same,GI50,SF-295 CNS,1420 nM
same,TGI,SF-295 CNS,3.7 µM
same,GI50,RXF 393 renal,2890 nM
same,TGI,RXF 393 renal,6.17 µM
same,GI50,786-0 renal,4.09 µM
same,TGI,786-0 renal,13.3 µM
same,GI50,PC-3 prostate,1190 nM
same,TGI,PC-3 prostate,13.8 µM
same,GI50,LOX IMVI melanoma,1850 nM
same,TGI,LOX IMVI melanoma,3.57 µM
same,GI50,MCF7 breast,1950 nM
same,TGI,MCF7 breast,5.96 µM
same,GI50,UACC-257 melanoma,2330 nM
same,TGI,UACC-257 melanoma,5.96 µM
same,GI50,NCI-H460 lung,1470 nM
same,TGI,NCI-H460 lung,3.99 µM
same,GI50,ACHN renal,2370 nM
same,TGI,ACHN renal,7.62 µM
same,GI50,A549 NSCLC,2190 nM
same,TGI,A549 NSCLC,8.07 µM
same,GI50,OVCAR-5 ovarian,3.01 µM
same,TGI,OVCAR-5 ovarian,17.4 µM
